# pIC50: −log10 of the molar value. Read-outs that look alike come from different tables or passages of the source.
# Columns and labels:
# [1] = test system: Acinetobacter baumannii pittii AG225; assay: MIC by broth microdilution, Acinetobacter baumannii; type: cell-based; details: strain AG225 Acinetobacter baumannii pittii
# [2] = test system: Enterobacter cloacae AG290; assay: MIC by broth microdilution, Enterobacter cloacae; type: cell-based; details: strain AG290 Enterobacter cloacae; read-out: MIC AG290 E. cloacae
# P aeruginosa = assay: MIC by broth microdilution, P aeruginosa isolates; type: cell-based, Pseudomonas aeruginosa; details: strain AG220 Pseudomonas aeruginosa ATCC27853; read-out: MIC AG220 P. aerugin
# E coli wild type = assay: MIC by broth microdilution, wild type E coli; type: cell-based; details: Escherichia coli
# [3] = test system: A1555G mutant mitochondrial ribosome (human chimeric); assay: in-vitro translation assay, human chimeric ribosomes, A1555G mutant mitochondrial decoding site; type: biochemical; details: Table 3 (Example 3)
# Excerpt: (§1) The antiribosomal activity of these compounds was investigated with cell-free translation assays using both wild type bacterial ribosomes and hybrid ribosomes carrying eukaryotic decoding A sites enabling the prediction of selectivity.
# [4] = test system: wild type bacterial ribosomes; assay: in-vitro translation assay, bacterial ribosomes; type: biochemical
# Excerpt: as §1
# [5] = test system: Klebsiella pneumonia AG215; assay: MIC by broth microdilution, Klebsiella pneumonia; type: cell-based; details: Klebsiella pneumoniae; strain AG215 Klebsiella pneumonia; read-out: MIC AG215 K. pneumon
# [6] = test system: cytosolic ribosome (human chimeric); type: biochemical
# Excerpt: as §1
# [7] = test system: mitochondrial ribosome (human chimeric); type: biochemical
# Excerpt: as §1
# MRSA = assay: MIC by broth microdilution, MRSA isolates; type: cell-based; details: Staphylococcus aureus, MRSA, Table 1 (Example 3)
# N. gonorrhoeae = assay: Disk diffusion, N. gonorrhoeae; type: cell-based; details: Neisseria gonorrhoeae
# [8] = test system: E coli carrying specific resistance determinants; assay: MIC by broth microdilution, E coli carrying specific resistance determinants; type: cell-based; details: Escherichia coli
# M. abscessus = assay: MIC by broth microdilution, M. abscessus; type: cell-based; details: Mycobacteroides abscessus
# [9] = Casinelli et al., J Antibiotics 1978, 31, 378 and 382; cited from earlier work
# M. smegmatis SZ380 = assay: MIC by broth microdilution, M. smegmatis; details: Mycolicibacterium smegmatis
smiles,measurement,setting,value
CCNC1C(OC2C(N)CC(N)C(O)C2OC2OC(CO)C(OC3OC(CN)C(O)C(O)C3N)C2O)OC(CO)C(O)C1O (stereo not drawn) [Compound 127],MIC,[1],4 µg/mL
same,MIC,[2],2 to 4 µg/mL
same,MIC,P aeruginosa,> 64 µg/mL
same,MIC,"E coli wild type; ATCC25922, strain AG212 E. coli (ATCC25922), read-out: MIC AG212 E. coli",4 µg/mL
same,MIC,"E coli wild type; WT, Table 4 (Example 3), read-out: MIC E. coli WT",2 µg/mL
same,MIC,"E coli wild type; WT, Table 5 (Example 3), read-out: MIC E. coli WT",2 µg/mL
same,MIC,"E coli wild type; clinical isolate AG001, Table 1 (Example 3), read-out: MIC E coli AG001",16 µg/mL
same,MIC,"E coli wild type; clinical isolate AG003, Table 1 (Example 3), read-out: MIC E coli AG003",16 µg/mL
same,MIC,"E coli wild type; clinical isolate AG055, Table 1 (Example 3), read-out: MIC E coli AG055",16 µg/mL
same,Selectivity for Binding to the Bacterial Ribosome over the Mutant Mitochondrial Ribosome,[3],1804
same,pIC50,"[4]; bacterial ribosome, Table 4 (Example 3), read-out: IC50 Bac",7.52
same,"selectivity for the bacterial ribosome over mitochondrial (wild type, A1555G mutant) and cytosolic ribosomes, in words",[4]; compared with the parent compound,increased selectivity for the bacterial ribosome
same,MIC,[5],2 µg/mL
same,Selectivity for Binding to the Bacterial Ribosome over the Cytosolic Ribosome,[6]; Table 3 (Example 3),918
same,pIC50,"[6]; cytosolic, Table 4 (Example 3), read-out: IC50 Cyt",4.55
same,Selectivity for Binding to the Bacterial Ribosome over the Mitochondrial Ribosome,[7]; Table 3 (Example 3),4715
same,pIC50,"[7]; mitochondrial, Table 4 (Example 3), read-out: IC50 Mit",3.85
same,MIC,"MRSA; clinical isolate AG038, read-out: MIC MRSA AG038",8 µg/mL
same,MIC,"MRSA; clinical isolate AG039, read-out: MIC MRSA AG039",> 128 µg/mL
same,MIC,"MRSA; clinical isolate AG042, read-out: MIC MRSA AG042",> 128 µg/mL
same,MIC,"MRSA; clinical isolate AG044, read-out: MIC MRSA AG044",4 to 8 µg/mL
same,zone of inhibition at 25 nmol/disc,N. gonorrhoeae,9 mm
same,MIC,[8]; read-out: MIC E. coli AAC(2′) AG106,2 µg/mL
same,MIC,[8]; read-out: MIC E. coli AAC(2′) pH434,4 µg/mL
same,MIC,[8]; read-out: MIC E. coli pGB2armA armA,4 to 8 µg/mL
same,MIC,[8]; read-out: MIC E. coli pH434 AAC(2′)-Ib,4 µg/mL
same,MIC,"M. abscessus; ATCC19977, ATCC 19977 WT, Table 5 (Example 3), read-out: MIC M. abscessus ATCC 19977 WT",32 µg/mL
same,MIC,M. abscessus; read-out: MIC M. abscessus engineered Δeis2,0.5 µg/mL
same,MIC,"M. abscessus; ATCC, Table 4 (Example 3), read-out: MIC M. abscessus ATCC",32 µg/mL
same,MIC,"M. abscessus; Clin. Isol., Table 4 (Example 3), read-out: MIC M. abscessus Clin. Isol.",64 µg/mL
same,"antibiotic potency compared with the parent compounds, in words",[9],comparable antibiotic potency to the parent compounds
same,MIC,"M. smegmatis SZ380; SZ380, read-out: MIC M. smegmatis SZ380 WT, SZ380 WT, Table 5 (Example 3)",4 µg/mL
same,MIC,"M. smegmatis SZ380; SZ380, read-out: MIC SZ380 M. smegmatis, strain SZ380 Mycobacterium smegmatis",4 µg/mL

# From patent publication US11466044B2 (WAYNE STATE UNIVERSITY, priority 2017, dated 2022)
